Numbers after ± are expanded uncertainties.
Columns and labels:
[1] = for mass density / viscosity: 101.33 kPa; for mass density: Vibrating tube method; for Normal melting temperature: Crystal, DTA; for Glass transition temperature: DSC
[2] = Molar enthalpy of transition or fusion; conditions: Crystal; DSC
[3] = 278.2 K, Liquid, Concentric cylinders viscometry
[4] = 288.15 K, Liquid, Concentric cylinders viscometry
[5] = 298.15 K, Liquid, Concentric cylinders viscometry
[6] = 308.15 K, Liquid, Concentric cylinders viscometry
[7] = 318.15 K, Liquid, Concentric cylinders viscometry
[8] = 328.15 K, Liquid, Concentric cylinders viscometry
[9] = 338.15 K, Liquid, Concentric cylinders viscometry
[10] = 278.15 K, Liquid, Concentric cylinders viscometry
[11] = 293.15 K, Liquid, Concentric cylinders viscometry
[12] = 303.15 K, Liquid, Concentric cylinders viscometry
[13] = 313.15 K, Liquid, Concentric cylinders viscometry
[14] = 323.15 K, Liquid, Concentric cylinders viscometry
[15] = 333.15 K, Liquid, Concentric cylinders viscometry

For CCCC[n+]1ccn(C)c1.O=S(=O)([N-]S(=O)(=O)C(F)(F)F)C(F)(F)F, the mass density ([1]; 283.15 K, Liquid) was 1451.2 ± 1 kg/m3, the mass density ([1]; 288.15 K, Liquid) was 1446.5 ± 1 kg/m3 and the mass density ([1]; 293.15 K, Liquid) was 1441.9 ± 1 kg/m3. For the same compound, the mass density ([1]; 298.15 K, Liquid) was 1436.9 ± 1 kg/m3, the mass density ([1]; 303.15 K, Liquid) was 1432.1 ± 1 kg/m3 and the mass density ([1]; 308.15 K, Liquid) was 1427.1 ± 1 kg/m3. It also gave a mass density ([1]; 313.15 K, Liquid) of 1422.6 ± 1 kg/m3, a Normal melting temperature [1] of -4.6 ± 3 °C and a Glass transition temperature [1] of -88.9 ± 2.9 °C. The “Molar enthalpy of transition or fusion” value [2] was 24.1 ± 1.3 kJ/mol.

Compound CC(C)CCCCn1cc[n+](C)c1.O=S(=O)([N-]S(=O)(=O)C(F)(F)F)C(F)(F)F has a viscosity ([1]; 278.15 K, Metastable liquid, Concentric cylinders viscometry) of 306 ± 8 mPa·s, a mass density ([1]; 283.15 K, Liquid) of 1357.5 ± 1 kg/m3 and a viscosity ([1]; 288.15 K, Concentric cylinders viscometry, Liquid) of 164 ± 5 mPa·s. For the same compound, the mass density ([1]; 288.15 K, Liquid) was 1353 ± 1 kg/m3, the viscosity ([1]; 293.15 K, Concentric cylinders viscometry, Liquid) was 124 ± 4 mPa·s and the mass density ([1]; 293.15 K, Liquid) was 1348.7 ± 1 kg/m3. For the same compound, the viscosity ([1]; 298.15 K, Concentric cylinders viscometry, Liquid) was 96 ± 4 mPa·s, the mass density ([1]; 298.15 K, Liquid) was 1344.2 ± 1 kg/m3 and the viscosity ([1]; 303.15 K, Concentric cylinders viscometry, Liquid) was 76 ± 4 mPa·s. It also gave a mass density ([1]; 303.15 K, Liquid) of 1339.8 ± 1 kg/m3, a mass density ([1]; 308.15 K, Liquid) of 1335.2 ± 1 kg/m3 and a viscosity ([1]; 313.15 K, Concentric cylinders viscometry, Liquid) of 50 ± 4 mPa·s. It also gave a mass density ([1]; 313.15 K, Liquid) of 1330.6 ± 1 kg/m3, a viscosity ([1]; 323.15 K, Concentric cylinders viscometry, Liquid) of 35 ± 4 mPa·s and a viscosity ([1]; 333.15 K, Concentric cylinders viscometry, Liquid) of 25 ± 4 mPa·s. The Normal melting temperature [1] was 11.2 ± 3.4 °C, the Glass transition temperature [1] was -81.3 ± 2.9 °C and the “Molar enthalpy of transition or fusion” value [2] was 0.5 ± 1.6 kJ/mol.

Work on CCCn1cc[n+](C)c1.O=S(=O)([N-]S(=O)(=O)C(F)(F)F)C(F)(F)F yielded a viscosity [1, 3] of 103 ± 4 mPa·s, a mass density ([1]; 283.15 K, Liquid) of 1490.2 ± 1 kg/m3 and a viscosity [1, 4] of 64 ± 4 mPa·s. For the same compound, the mass density ([1]; 288.15 K, Liquid) was 1485.2 ± 1 kg/m3, the mass density ([1]; 293.15 K, Liquid) was 1480.6 ± 1 kg/m3 and the viscosity [1, 5] was 43 ± 4 mPa·s. It also gave a mass density ([1]; 298.15 K, Liquid) of 1475.6 ± 1 kg/m3, a mass density ([1]; 303.15 K, Liquid) of 1470.8 ± 1 kg/m3 and a viscosity [1, 6] of 30 ± 4 mPa·s. For the same compound, the mass density ([1]; 308.15 K, Liquid) was 1465.8 ± 1 kg/m3, the mass density ([1]; 313.15 K, Liquid) was 1460.6 ± 1 kg/m3 and the viscosity [1, 7] was 22 ± 4 mPa·s. The viscosity [1, 8] was 17 ± 4 mPa·s and the viscosity [1, 9] was 13 ± 4 mPa·s.

CCCCCCCn1cc[n+](C)c1.O=S(=O)([N-]S(=O)(=O)C(F)(F)F)C(F)(F)F showed a viscosity [1, 3] of 234 ± 6 mPa·s, a mass density ([1]; 283.15 K, Liquid) of 1358.4 ± 1 kg/m3 and a viscosity [1, 4] of 132 ± 4 mPa·s. It also gave a mass density ([1]; 288.15 K, Liquid) of 1354.1 ± 1 kg/m3, a mass density ([1]; 293.15 K, Liquid) of 1349.8 ± 1 kg/m3 and a viscosity [1, 5] of 82 ± 4 mPa·s. The mass density ([1]; 298.15 K, Liquid) was 1345.4 ± 1 kg/m3, the mass density ([1]; 303.15 K, Liquid) was 1341 ± 1 kg/m3 and the viscosity [1, 6] was 54 ± 4 mPa·s. It also gave a mass density ([1]; 308.15 K, Liquid) of 1336.4 ± 1 kg/m3, a mass density ([1]; 313.15 K, Liquid) of 1331.6 ± 1 kg/m3 and a viscosity [1, 7] of 37 ± 4 mPa·s. It also gave a viscosity [1, 8] of 27 ± 4 mPa·s, a viscosity [1, 9] of 20 ± 4 mPa·s and a Normal melting temperature [1] of -0.9 ± 3.4 °C. The Glass transition temperature [1] was -85.4 ± 2.9 °C and the “Molar enthalpy of transition or fusion” value [2] was 0.4 ± 1.6 kJ/mol.

For CCCCCC[n+]1ccn(C)c1.O=S(=O)([N-]S(=O)(=O)C(F)(F)F)C(F)(F)F, the mass density ([1]; 283.15 K, Liquid) was 1386.1 ± 1 kg/m3, the mass density ([1]; 288.15 K, Liquid) was 1381.5 ± 1 kg/m3 and the mass density ([1]; 293.15 K, Liquid) was 1377.2 ± 1 kg/m3. For the same compound, the mass density ([1]; 298.15 K, Liquid) was 1372.7 ± 1 kg/m3, the mass density ([1]; 303.15 K, Liquid) was 1368.3 ± 1 kg/m3 and the mass density ([1]; 308.15 K, Liquid) was 1363.6 ± 1 kg/m3. For the same compound, the mass density ([1]; 313.15 K, Liquid) was 1358.8 ± 1 kg/m3, the Normal melting temperature [1] was -11.2 ± 3.4 °C and the Glass transition temperature [1] was -85.7 ± 2.9 °C. The “Molar enthalpy of transition or fusion” value [2] was 6.9 ± 6.4 kJ/mol.

Compound CC(C)CCCn1cc[n+](C)c1.O=S(=O)([N-]S(=O)(=O)C(F)(F)F)C(F)(F)F has a viscosity [1, 10] of 237 ± 6 mPa·s, a mass density ([1]; 283.15 K, Liquid) of 1385.9 ± 1 kg/m3 and a viscosity [1, 4] of 137 ± 4 mPa·s. The mass density ([1]; 288.15 K, Liquid) was 1381.3 ± 1 kg/m3, the viscosity [1, 11] was 107 ± 4 mPa·s and the mass density ([1]; 293.15 K, Liquid) was 1377 ± 1 kg/m3. The viscosity [1, 5] was 85 ± 4 mPa·s, the mass density ([1]; 298.15 K, Liquid) was 1372.4 ± 1 kg/m3 and the viscosity [1, 12] was 69 ± 4 mPa·s. The mass density ([1]; 303.15 K, Liquid) was 1367.9 ± 1 kg/m3, the mass density ([1]; 308.15 K, Liquid) was 1363.3 ± 1 kg/m3 and the viscosity [1, 13] was 45 ± 4 mPa·s. The mass density ([1]; 313.15 K, Liquid) was 1358.5 ± 1 kg/m3, the viscosity [1, 14] was 32 ± 4 mPa·s and the viscosity [1, 15] was 23 ± 4 mPa·s. The Normal melting temperature [1] was 3.2 ± 3.4 °C, the Glass transition temperature [1] was -81 ± 2.9 °C and the “Molar enthalpy of transition or fusion” value [2] was 0.1 kJ/mol.

Work on CCCCCn1cc[n+](C)c1.O=S(=O)([N-]S(=O)(=O)C(F)(F)F)C(F)(F)F yielded a mass density ([1]; 283.15 K, Liquid) of 1417.5 ± 1 kg/m3, a mass density ([1]; 288.15 K, Liquid) of 1412.9 ± 1 kg/m3 and a mass density ([1]; 293.15 K, Liquid) of 1408.4 ± 1 kg/m3. For the same compound, the mass density ([1]; 298.15 K, Liquid) was 1403.6 ± 1 kg/m3, the mass density ([1]; 303.15 K, Liquid) was 1399 ± 1 kg/m3 and the mass density ([1]; 308.15 K, Liquid) was 1393.9 ± 1 kg/m3. The mass density ([1]; 313.15 K, Liquid) was 1389.3 ± 1 kg/m3.

In the case of CC(C)CCn1cc[n+](C)c1.O=S(=O)([N-]S(=O)(=O)C(F)(F)F)C(F)(F)F, the viscosity [1, 10] is reported as 195 ± 5 mPa·s, the mass density ([1]; 283.15 K, Liquid) is reported as 1417.5 ± 1 kg/m3 and the viscosity [1, 4] is reported as 112 ± 4 mPa·s. For the same compound, the mass density ([1]; 288.15 K, Liquid) was 1412.7 ± 1 kg/m3, the viscosity [1, 11] was 86 ± 4 mPa·s and the mass density ([1]; 293.15 K, Liquid) was 1408.1 ± 1 kg/m3. For the same compound, the viscosity [1, 5] was 69 ± 4 mPa·s, the mass density ([1]; 298.15 K, Liquid) was 1403.3 ± 1 kg/m3 and the viscosity [1, 12] was 56 ± 4 mPa·s. The mass density ([1]; 303.15 K, Liquid) was 1398.5 ± 1 kg/m3, the mass density ([1]; 308.15 K, Liquid) was 1393.7 ± 1 kg/m3 and the viscosity [1, 13] was 38 ± 4 mPa·s. The mass density ([1]; 313.15 K, Liquid) was 1388.7 ± 1 kg/m3, the viscosity [1, 14] was 27 ± 4 mPa·s and the viscosity [1, 15] was 20 ± 4 mPa·s. For the same compound, the Normal melting temperature [1] was -0.0 ± 3.4 °C, the Glass transition temperature [1] was -83.7 ± 2.9 °C and the “Molar enthalpy of transition or fusion” value [2] was 0.1 kJ/mol.

With CC(C)Cn1cc[n+](C)c1.O=S(=O)([N-]S(=O)(=O)C(F)(F)F)C(F)(F)F the viscosity ([1]; 278.15 K, Liquid) was 244 mPa·s, the mass density ([1]; 283.15 K, Liquid) was 1450.3 ± 1 kg/m3 and the viscosity ([1]; 288.15 K, Liquid) was 132 mPa·s. For the same compound, the mass density ([1]; 288.15 K, Liquid) was 1445.6 ± 1 kg/m3, the viscosity ([1]; 293.15 K, Liquid) was 103 mPa·s and the mass density ([1]; 293.15 K, Liquid) was 1441.1 ± 1 kg/m3. It also gave a viscosity ([1]; 298.15 K, Liquid) of 79 ± 32 mPa·s, a mass density ([1]; 298.15 K, Liquid) of 1436.3 ± 1 kg/m3 and a viscosity ([1]; 303.15 K, Liquid) of 61 ± 11 mPa·s. The mass density ([1]; 303.15 K, Liquid) was 1431.6 ± 1 kg/m3, the mass density ([1]; 308.15 K, Liquid) was 1426.6 ± 1 kg/m3 and the viscosity ([1]; 313.15 K, Liquid) was 40 ± 8 mPa·s. The mass density ([1]; 313.15 K, Liquid) was 1421.9 ± 1 kg/m3, the viscosity ([1]; 323.15 K, Liquid) was 28 ± 7 mPa·s and the viscosity ([1]; 333.15 K, Liquid) was 20 ± 6 mPa·s. The Normal melting temperature [1] was -16.2 ± 3.4 °C, the Glass transition temperature [1] was -81.2 ± 2.9 °C and the “Molar enthalpy of transition or fusion” value [2] was 6.8 ± 1.6 kJ/mol.

Compound CC(C)[n+]1ccn(C)c1.O=S(=O)([N-]S(=O)(=O)C(F)(F)F)C(F)(F)F has a viscosity [1, 10] of 122 ± 4 mPa·s, a mass density ([1]; 283.15 K, Liquid) of 1492.2 ± 1 kg/m3 and a viscosity [1, 4] of 75 ± 4 mPa·s. It also gave a mass density ([1]; 288.15 K, Liquid) of 1487.2 ± 1 kg/m3, a viscosity [1, 11] of 59 ± 4 mPa·s and a mass density ([1]; 293.15 K, Liquid) of 1482.5 ± 1 kg/m3. For the same compound, the viscosity [1, 5] was 48 ± 4 mPa·s, the mass density ([1]; 298.15 K, Liquid) was 1477.6 ± 1 kg/m3 and the viscosity [1, 12] was 39 ± 4 mPa·s. The mass density ([1]; 303.15 K, Liquid) was 1472.8 ± 1 kg/m3, the mass density ([1]; 308.15 K, Liquid) was 1467.8 ± 1 kg/m3 and the viscosity [1, 13] was 28 ± 4 mPa·s. For the same compound, the mass density ([1]; 313.15 K, Liquid) was 1462.6 ± 1 kg/m3, the viscosity [1, 14] was 21 ± 4 mPa·s and the viscosity [1, 15] was 16 ± 4 mPa·s. For the same compound, the Normal melting temperature [1] was 9.0 ± 3.4 °C, the Glass transition temperature [1] was -83 ± 2.9 °C and the “Molar enthalpy of transition or fusion” value [2] was 23.9 ± 1.7 kJ/mol.

From the NIST ThermoML archive (doi:10.1021/acs.jced.5b00658)
